Assay results: US5215916A, “Super glucocorticoid receptors: receptors with increased affinity and specificity for glucocorticoid steriods” (priority 1991, dated 1993)
Changes are numbered by the printed parent chain.

Key:
[1] = biological target: T1, C656S mutant glucocorticoid receptor (Rattus norvegicus, UniProt P06536, C656S/D98G); assay: Competition binding assay with [3H]Dex, COS-7 cytosol, C656S receptor; conditions: for reduction in relative affinity on replacement of Cys-656 with serine: C656S vs wild type, 2.5 hr incubation
T1 construct: Thus the full length receptor was removed from the VARO vector with BamHI and inserted into the SVL vector; expressed in transfected cells; host or cells: COS-7 (cytosol)
T1 sequence (P06536 1-795 D98G/C656S): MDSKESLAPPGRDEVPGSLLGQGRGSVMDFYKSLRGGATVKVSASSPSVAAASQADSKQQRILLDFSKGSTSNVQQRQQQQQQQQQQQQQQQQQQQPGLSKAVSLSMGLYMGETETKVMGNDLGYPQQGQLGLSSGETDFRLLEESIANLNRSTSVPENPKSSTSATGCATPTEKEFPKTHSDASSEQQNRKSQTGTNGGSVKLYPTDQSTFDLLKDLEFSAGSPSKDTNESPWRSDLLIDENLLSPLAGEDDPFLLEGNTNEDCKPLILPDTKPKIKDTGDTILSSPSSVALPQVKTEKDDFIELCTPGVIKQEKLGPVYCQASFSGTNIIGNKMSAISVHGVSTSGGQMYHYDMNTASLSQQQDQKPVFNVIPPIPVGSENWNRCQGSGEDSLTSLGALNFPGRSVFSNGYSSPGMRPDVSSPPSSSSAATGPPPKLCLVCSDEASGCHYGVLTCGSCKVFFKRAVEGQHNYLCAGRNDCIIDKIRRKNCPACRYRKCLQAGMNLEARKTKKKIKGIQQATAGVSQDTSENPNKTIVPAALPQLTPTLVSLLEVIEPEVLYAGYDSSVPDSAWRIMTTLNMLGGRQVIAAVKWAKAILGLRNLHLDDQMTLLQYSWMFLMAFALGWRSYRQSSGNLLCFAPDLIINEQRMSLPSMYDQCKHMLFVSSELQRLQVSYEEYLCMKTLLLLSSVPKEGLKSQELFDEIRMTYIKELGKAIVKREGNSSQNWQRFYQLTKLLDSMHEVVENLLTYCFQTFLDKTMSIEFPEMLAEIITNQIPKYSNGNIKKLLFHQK
Experimental: (§1) Monolayer cultures of COS-7 cells were grown in DMEM (Gibco) supplemented with 5% fetal bovine serum (FBS) (Biofluids) at 37° C. in a 5% CO2 incubator. Standard calcium phosphate transfection methods were used to introduce the wild type and mutant receptor expression vectors (pSVL) into COS-7 cells (100 mm plates [Costar] at a cell density of about 10^6 /plate were each treated with 10 μg of plasmid DNA). After ~16 hrs of incubation at 37° C. in a 5% CO2 incubator, the excess calcium phosphate and precipitate were removed by washing with phosphate buffered saline (PBS). The cells were incubated at 37° C. for another ~48 hr in DMEM/ 5% FBS and harvested by trypsinization followed by centrifugation (for 10 min at 1570 ×g) and washing 3 times with PBS. The washed cells were stored at -80° C. until used.
(§2) Briefly, 30% cytosol solutions containing ~21 mM Na2 MoO4 were prepared with three parts COS-7 cell cytosol, 2 parts pH 9.5 TAPS buffer, and 5 parts pH 8.8 TAPS buffer. The total EtOH in each experiment was kept constant and at a level of ≤1%. […] After incubation for 2.5 hr, the [^3 H]Dex-Mes-labeled solutions were quick-frozen at -78° C. for subsequent SDS-polyacrylamide gel electrophoresis analysis. The specifically bound [^3 H]Dex was determined by first adding a 10% dextran-coated charcoal solution (added volume =20% of reaction solution volume) to remove free steroid and then subtracting the nonspecific binding seen in the presence of excess nonradioactive Dex.
(§3) The average specific binding was determined after 2.5 or 24 hr of incubation as described above, expressed as percentage of the non-competed control and plotted versus the log10 of the concentration of the competing steroid.
(§4) The initial data were collected from 2.5 hr binding assays because of concerns about the stability of the receptors over longer times.

[2] = biological target: T2, C661S mutant glucocorticoid receptor (Rattus norvegicus, UniProt P06536, C661S/D98G); assay: Competition binding assay with [3H]Dex, COS-7 cytosol, C661S receptor; conditions: for decrease in relative affinity on mutation of Cys-661: C661S vs wild type, 2.5 hr incubation
T2 construct: Thus the full length receptor was removed from the VARO vector with BamHI and inserted into the SVL vector; expressed in transfected cells; host or cells: COS-7 (cytosol)
T2 sequence (P06536 1-795 D98G/C661S): T1 sequence (P06536 1-795 D98G/C656S) with S656C, C661S
Experimental: as §1, §2, §3, §4

Structure (SMILES) | Relative Ka of Steroid Binding to Receptor [1] | reduction in relative affinity on replacement of Cys-656 with serine [1] | Relative Ka of Steroid Binding to Receptor [2] | decrease in relative affinity on mutation of Cys-661 [2] | effect of mutation of Cys-661 on binding [2]
C[C@]12CC[C@@H]3c4ccc(O)cc4CC[C@H]3[C@@H]1CC[C@@H]2O [17β-Estradiol, 17β-estradiol] | 0.0015 | ≥ 10 fold | 0.0017 ± 0.0006 | approximately 10 fold | –
C[C@]12CCC(=O)C=C1CC[C@@H]1[C@@H]2[C@@H](O)C[C@]2(C=O)[C@@H](C(=O)CO)CC[C@@H]12 [Aldosterone, aldosterone] | 0.068 | ≤ 3 fold | 0.016 ± 0.007 | approximately 10 fold | –
CC#C[C@]1(O)CC[C@H]2[C@@H]3CCC4=CC(=O)CCC4=C3[C@@H](c3ccc(N(C)C)cc3)C[C@@]21C [RU486] | 3.4 | – | 3.84 ± 1.36 | – | little effect
